The source made the active and inactive calls. How the calls were made is not given here.
Molecular target: not listed separately
Assay: Quorum luxo inducers, light production, v cholerae bh1651 luxod47e, confirmatory dose response (AID 624254)
Settings: V. cholerae BH1651 luxOD47E, luciferase light induction, 6 h; at 50 µM (top of the series)

Row | SMILES | activation (light increase)
1 | COc1ccc(Cl)cc1NC(=O)CN(C)C(=O)CNC(=O)C12CC3CC(CC(C3)C1)C2 | inactive

Molecular target: V. cholerae BH1651 luxOD47E, luciferase light induction, 6 h
Assay: as above
Settings: not given

Row | SMILES | AC50
2 | CC1CCCCC1NC(=O)COC(=O)c1ccccc1NC(=O)c1ccco1 (configuration not stated) | 20 µM
3 | COc1ccc(N2CCN(C(=O)COc3ccc4ccccc4c3)CC2)cc1 | 35.1 µM
4 | O=[N+]([O-])c1ccc(N(CCO)CCO)c2c1no[n+]2[O-] | 1.2 µM
5 | Cc1cc(C)cc(NC(=O)Cn2ncn3c(cc4ccccc43)c2=O)c1 | 7.05 µM
6 | CCn1cc(C(=O)NC2CCCCC2C)c(=O)c2ccc(C)nc21 (configuration not stated) | 1.08 µM
7 | COc1ccc(N2CC(C(=O)Nc3cc(C(F)(F)F)ccc3N3CCCC3)CC2=O)c(OC)c1 (configuration not stated) | 1.22 µM
8 | Cc1noc(C)c1S(=O)(=O)N1CCCC(C(=O)NCCC2=CCCCC2)C1 (configuration not stated) | 2.64 µM
9 | Cc1cc(=O)[nH]c(CN2CCC(c3ccccc3)CC2)n1 | 0.296 µM
10 | CCOc1ccc(CCNC(=O)C2CCN(c3ccc(N4CCOCC4)nn3)CC2)cc1OCC | 0.0445 µM
11 | Cc1ccc(N2C(=O)C(CN(C)C)C2c2ccccc2)cc1 (configuration not stated) | 0.417 µM
12 | Cc1ccc(-n2nnnc2SCC(=O)NCC2CCCO2)cc1C (configuration not stated) | 0.0336 µM
13 | Cc1cc2oc(=O)cc(-c3ccccc3)c2c(C)c1-c1ccc(C#N)cc1 | 3.21 µM
14 | NS(=O)(=O)c1ccc(NC(=O)NC2CCCCC2)cc1 | 2.29 µM
15 | C[C@H](CO)N1C[C@H](C)[C@@H](CN(C)S(=O)(=O)c2cccs2)Oc2c(NC(=O)Nc3ccc4c(c3)OCO4)cccc2C1=O | 1.18 µM
16 | O=c1cc(CSc2ccccn2)c2ccccc2[nH]1 | 0.615 µM
17 | O=C(COC(=O)/C=C/c1ccccc1)NC1CCCC1 | > 50 µM (inactive)
18 | Cc1ccc(C(=O)OCC(=O)NCC(F)(F)F)cc1C | 2.41 µM
19 | CCCS(=O)(=O)N1CCC(C(=O)N2CCN(C(=O)OCC)CC2)CC1 | > 50 µM (inactive)
20 | CCc1cc(C(=O)c2ccccc2OC)c(N)s1 | 0.802 µM
21 | O=C(Nc1nnc(-c2ccc3c(c2)OCCO3)o1)C1CCCCC1 | < 0.0235 µM
22 | Cc1cccc(-c2cc3nc4c(c(N5CCC6(CC5)OCCO6)n3n2)CCCC4)c1 | > 50 µM (inactive)
23 | C[C@H](CO)N1C[C@H](C)[C@@H](CN(C)S(=O)(=O)c2ccccc2)Oc2c(NC(=O)Nc3ccc4c(c3)OCO4)cccc2C1=O | 1.8 µM
24 | CCCOc1ccc(-c2nc(OC)c3ccccc3n2)cc1 | 7.01 µM

Row | SMILES | AC50
25 | O=C(NCc1ccccn1)C(C(=O)c1ccc(F)cc1)n1ccccc1=O (configuration not stated) | 0.0493 µM
26 | CC(C)C(NC(=O)c1ccc(S(=O)(=O)N2CCOCC2)cc1)c1nc2ccccc2[nH]1 (configuration not stated) | 15.3 µM
27 | COc1ccc(CNc2nnnn2C)cc1 | 3.51 µM
28 | CCCCCc1c(C)nc(N2CCc3ccccc3C2)[nH]c1=O | 0.295 µM
29 | COc1ccc(NC(=O)CCS(=O)(=O)c2ccc3c(c2)CCCN3C(C)=O)cc1Cl | 0.113 µM
30 | C[C@H](CO)N1C[C@H](C)[C@@H](CN(C)S(=O)(=O)c2ccccc2)Oc2c(NC(=O)Nc3ccccc3)cccc2C1=O | 6.48 µM
31 | COc1ccc(OCCOC(=O)c2cccs2)cc1 | 40.3 µM
32 | CCC(C)n1cnc2c(=O)oc3ccccc3c21 (configuration not stated) | 0.149 µM
33 | O=C(c1cc2cc(Cl)ccc2oc1=O)N1CCOCC1 | 0.0678 µM
34 | COCc1[nH]nc2c1C1(CCC3(CC1)OCCO3)C(C#N)=C(N)O2 | > 50 µM (inactive)
35 | C=Cn1c(C(=O)O)ccc1-c1ccc(OC)cc1 | < 0.38 µM
36 | O=C(O)c1cccc(Nc2ncnc3c2cnn3-c2ccccc2)c1 | > 50 µM (inactive)
37 | Cn1c(C(=O)NC2CCCCC2)cc2c(=O)n(C)c3ccccc3c21 | 0.0273 µM
38 | CN(CC(=O)Nc1c(Cl)cccc1Cl)C(=O)c1n[nH]c2ccccc12 | 38.8 µM
39 | Cc1noc(C)c1NC(=O)Nc1cccc2c1O[C@@H](CN(C)S(=O)(=O)c1cccs1)[C@H](C)CN([C@H](C)CO)C2=O | 11.2 µM
40 | CCOC(=O)c1cnc2nc(C(F)(F)F)[nH]n2c1=O | 15.7 µM
41 | CCCCn1nnnc1NCc1ccc(N2CCCC2)cc1 | 38.7 µM
42 | CCc1ccc(NS(=O)(=O)c2cccs2)cc1 | 0.212 µM
43 | COc1ccc(NC(=O)Nc2cccc3c2O[C@H](CN(C)S(=O)(=O)c2ccccc2)[C@@H](C)CN([C@H](C)CO)C3=O)cc1 | 13.2 µM
44 | Cc1cccc(NC(=O)c2c(O)c3ccccc3n(C)c2=O)c1 | > 50 µM (inactive)
45 | COc1cccc(OCC(=O)NC2CCCCC2)c1 | 2.43 µM
46 | Cc1ccc(Cn2c(SCC(C)C)nc3c2c(=O)[nH]c(=O)n3C)cc1 | 0.166 µM
47 | CCOc1ccc(CCNC(=O)COC(=O)Cc2ccc(F)cc2)cc1OCC | 0.0953 µM

Row | SMILES | AC50
48 | O=C(c1ccc(C(=O)N2CCOCC2)nc1)N1CCOCC1 | 0.183 µM
49 | COC(=O)C(C)N(c1ccc(C)cc1)S(=O)(=O)c1c(C)[nH]c(=O)[nH]c1=O (configuration not stated) | > 50 µM (inactive)
50 | COc1ccc(CNC(=O)c2cc(-n3cnnc3)ccc2Cl)cc1 | 4.23 µM
51 | COc1ccc(Cl)cc1S(=O)(=O)NC(C)C(=O)NCCCn1ccnc1 (configuration not stated) | 0.18 µM
52 | Cc1cc(Oc2ccc(C#N)cc2)nc(N2CCOCC2)n1 | 0.208 µM
53 | O=C(Nc1nnc(C(F)(F)F)s1)C1COc2ccccc2O1 (configuration not stated) | 13.7 µM
54 | CCOCCCN1CC(C(=O)NCCc2ccc(C)cc2)CC1=O (configuration not stated) | 0.185 µM
55 | CCOC(=O)CSc1nc(N)c(C#N)c(-c2cccs2)c1C#N | 11.7 µM
56 | CCn1nc(NC(=O)c2ccco2)c2cc3ccccc3nc21 | 2.36 µM
57 | CC(C)n1nnnc1SCC(=O)c1ccc2c(c1)OCCO2 | 0.845 µM
58 | O=C(CSc1nnc2ccccn12)c1ccc2c(c1)OCCO2 | 17 µM
59 | COc1ccc(C)c2sc(N3CCCC3)nc12 | 1.52 µM
60 | CC(NC(=O)CN1CCN(c2ccccc2F)CC1)c1ccccc1 (configuration not stated) | > 50 µM (inactive)
61 | CSc1nc(C)cc(OCC(=O)N2CCOCC2)n1 | 0.113 µM
62 | C=CCn1c(NCc2ccccc2)nc2ccccc21 | 11.7 µM
63 | CCC(NC(=O)Nc1nccs1)(C(F)(F)F)C(F)(F)F | 0.734 µM
64 | COc1ccc(Cl)cc1NC(=O)COC(=O)c1ccc(Br)o1 | 8.88 µM
65 | O=C(NCc1ccccn1)c1ccc(CS(=O)(=O)Cc2ccc(Cl)cc2)o1 | 20.5 µM
66 | CCC(CC)c1nnc(NC(=O)COc2ccc3c(C)cc(=O)oc3c2)s1 | 0.0998 µM
67 | CCn1nnnc1NCc1ccc(SC)cc1 | 0.188 µM
68 | O=C(NC1CCCCC1)C(=O)c1c[nH]c2ccccc12 | < 0.0235 µM
69 | CCC(Oc1ccccc1)C(=O)Nc1ccc(-c2nnc(-c3ccco3)o2)cc1 (configuration not stated) | > 50 µM (inactive)
70 | CC(C)Cn1c(CN2CCN(C)C(CCO)C2)nc2ccccc21 (configuration not stated) | > 50 µM (inactive)

Row | SMILES | AC50
71 | O=C(NCCC(=O)N1CCCCC1)c1ccc(Br)cc1 | 25 µM
72 | Cc1ccc(C)c(S(=O)(=O)N2CCN(C(=O)c3n[nH]c(=O)c4ccccc34)CC2)c1 | 2.96 µM
73 | CC(=O)Oc1ccc(-c2ccc(C(=O)O)cc2)cc1 | > 50 µM (inactive)
74 | O=C(Cn1cccc1C(=O)c1ccccc1)NCCN1CCCCCC1 | 25.6 µM
75 | CCCCCCCCOC(=O)C(NC(=O)CCC(=O)Nc1ccc(S(N)(=O)=O)cc1)C(O)c1ccccc1 (configuration not stated) | > 50 µM (inactive)
76 | CCOC(=O)c1cnc(-n2nc(C)cc2C)nc1N(C)C | 0.0676 µM
77 | O=C(Nc1nccs1)C(NS(=O)(=O)c1ccc(Br)s1)c1ccccc1 (configuration not stated) | 15.8 µM
78 | Cn1c(Cn2cnc(Cl)c2Cl)nc2ccccc21 | 0.21 µM
79 | Cc1ccc(C)c(-n2c(Cc3cccs3)n[nH]c2=S)c1 | < 0.0235 µM
80 | Cc1ccc2onc(CC(=O)O)c2c1 | 8.36 µM
81 | COc1ccc(S(=O)(=O)N2CCN(c3cnccn3)CC2)cc1 | 2.58 µM
82 | COc1cc(NC(=O)C2=C(C)OCCS2)c(Cl)cc1C(=O)NCCN(C)C | 0.463 µM
83 | Cc1ccc2nc(NCCc3ccccc3)c3nncn3c2c1 | 0.0681 µM
84 | CC(=O)N1CCN(C(=O)COc2ccc(Br)cc2)CC1 | > 50 µM (inactive)
85 | O=C(CNC(=O)c1cccc(S(=O)(=O)N2CCc3ccccc32)c1)Nc1ccc(F)c(F)c1F | 0.516 µM
86 | CC(C)c1ccc(CNc2nnnn2C)cc1 | 0.101 µM
87 | CC(=O)Nc1ccc(N2CCCC2)cc1 | > 50 µM (inactive)
88 | COc1ccc(OC)c(S(=O)(=O)N2CCC(C(=O)N3CCc4ccccc4C3)CC2)c1 | 0.191 µM
89 | Cc1sc(N)nc1-c1ccc(Oc2ccccc2)cc1 | 0.167 µM
90 | CCCS(=O)(=O)N1CCCC(C(=O)N2CCN(c3ccccc3)CC2)C1 (configuration not stated) | 0.0413 µM
91 | Cc1noc(C)c1S(=O)(=O)Nc1ccc2c(c1)C(=O)N([C@H](C)CO)C[C@H](C)[C@@H](CN(C)Cc1ccc(C(=O)O)cc1)O2 | 18.8 µM
92 | O=C(CN1CCN(c2ccc(F)cc2)CC1)Nc1cc(C(F)(F)F)ccc1Cl | > 50 µM (inactive)
93 | Cc1nc2ncnn2c(C)c1Cc1c(Cl)cccc1Cl | 1.22 µM

Row | SMILES | AC50
94 | COc1ccc(OCCOC(=O)CCS(=O)(=O)c2ccc(C)cc2)cc1 | 0.208 µM
95 | CC(C)(C)Cc1nc(-c2ccccn2)no1 | > 50 µM (inactive)
96 | CN(C(=O)Cn1cc(C(F)(F)F)cc(Cl)c1=O)C1CCS(=O)(=O)C1 (configuration not stated) | 1.23 µM
97 | CCOC(=O)C1=C(C)N=C2SCCC(=O)N2C1c1cc(Br)ccc1OC (configuration not stated) | 0.0354 µM
98 | Cc1noc(C)c1C(=O)OCC(=O)c1c[nH]c2ccccc12 | > 50 µM (inactive)
99 | COc1ccc(-c2noc(CCC(=O)N3CCN(c4cccc(C(F)(F)F)c4)CC3)n2)cc1 | 0.685 µM
100 | CC(C)COC(=O)CNc1n[nH]c(=S)[nH]c1=O | < 0.0235 µM
101 | COc1cc(NC(=O)Nc2cccc(Cl)c2)c(OC)cc1NC(=O)CN1CCCCC1 | 0.522 µM
102 | O=C(CCN1C(=O)c2ccccc2C1=O)N1CCN(C2c3ccccc3-c3ccccc32)CC1 | 0.209 µM
103 | COc1ccccc1NC(=O)c1nn(-c2ccc(Cl)cc2)ccc1=O | 0.377 µM
104 | CC(=O)c1cccc(NC(=O)CSc2nc(=O)n(CCCN3CCOCC3)c3c2CCC3)c1 | 0.18 µM
105 | Cc1ccc2cc3c(NC(=O)c4ccco4)nn(C)c3nc2c1 | < 0.0235 µM
106 | CCC(=O)N(CC)c1nc(-c2cc(OC)ccc2OC)cs1 | 0.162 µM
107 | C=C(C)COc1ccc(-c2ncncc2Oc2ccc(OC)cc2)c(O)c1 | 0.632 µM
108 | CSc1ccc(C#N)cc1NC(=O)c1ccc(Cl)cc1Cl | > 50 µM (inactive)
109 | O=C(NCc1ccco1)C1CCCN1S(=O)(=O)c1ccc2ccccc2c1 (configuration not stated) | > 50 µM (inactive)
110 | CCOc1ccc(CNC(=O)c2ccco2)cc1 | 35.6 µM
111 | C[C@H](CO)N1C[C@H](C)[C@@H](CN(C)S(=O)(=O)c2ccccc2)Oc2c(NC(=O)Nc3ccc(F)cc3)cccc2C1=O | 1.91 µM
112 | COC(=O)c1ccccc1NC(=O)Cn1cc2c(n1)CCC(C)C2 (configuration not stated) | 1.48 µM
